Measured values published in patent US10034886B2, “GLP-1 receptor modulators” (Celgene International II SÀRL, priority 2014, dated 2018).

molecular target: T1, GLP-1R (Homo sapiens, UniProt P43220); assay: EC20 GLP-1(9-36) PAM cAMP assay: dose response of compound in the presence of fixed concentration of GLP-1(9-36); format: cell-based; conditions: EC20 GLP-1(9-36) PAM EC50, dose response of compound in presence of fixed concentration of GLP-1(9-36), GLP-1R CRE-bla CHO-K1 cells
T1 construct: host or cells: GLP-1R CRE-bla CHO-K1 cells
Summary of the method: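 GLP-1R CRE-bla CHO-K1 cells treated 30 min at 37 °C with 12-point compound dose response plus fixed EC20 GLP-1(9-36), with IBMX, in HBSS/HEPES/0.1% BSA pH 7.4. Total cAMP measured by luminescent detection against standard curve; EC50 and Emax from non-linear regression.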

T1 sequence (P43220 24-463): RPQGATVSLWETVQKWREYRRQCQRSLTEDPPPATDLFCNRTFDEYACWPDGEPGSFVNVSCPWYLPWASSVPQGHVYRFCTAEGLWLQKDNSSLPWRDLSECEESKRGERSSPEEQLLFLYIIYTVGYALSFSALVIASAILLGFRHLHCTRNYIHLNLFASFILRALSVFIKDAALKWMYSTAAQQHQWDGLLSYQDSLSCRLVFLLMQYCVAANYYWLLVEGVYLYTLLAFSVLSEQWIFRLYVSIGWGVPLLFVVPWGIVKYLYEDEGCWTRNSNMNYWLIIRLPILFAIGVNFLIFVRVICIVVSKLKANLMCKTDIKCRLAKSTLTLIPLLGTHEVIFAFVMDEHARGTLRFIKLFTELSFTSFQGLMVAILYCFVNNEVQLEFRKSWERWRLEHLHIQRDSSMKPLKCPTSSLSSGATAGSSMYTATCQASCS
T1 sequence (P01275 100-127 partner limits assumed): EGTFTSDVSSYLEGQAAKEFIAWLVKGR

SMILES	EC50 [nM]
CCCCCCCOc1ccc(-c2cnc(-c3ccc(C[C@H](NC(=O)c4ccc(C(C)(C)C)s4)C(=O)N4CC[C@H](c5nnn[nH]5)C4)cc3)nc2)cc1 [Compound 886]	800 to 2500

same assay, conditions: GLP-1R CRE-bla CHO-K1 cells, compound dose response with fixed concentration of GLP-1(9-36), read-out: EC20 GLP-1(9-36) PAM EC50

EC50 [nM]	SMILES
< 800	CC(C)(C)c1ccc(C(=O)N[C@@H](Cc2ccc(-c3ncc(-c4ccc(-c5ccc(C(F)(F)F)cc5)cc4)cn3)cc2)C(=O)O)s1 [Compound 1355, (S)-2-(5-(tert-butyl)thiophene-2-carboxamido)-3-(4-(5-(4′-(trifluoromethyl)-[1,1′-biphenyl]-4-yl)pyrimidin-2-yl)phenyl)propanoic acid]
2500 to 5000	CC[C@H]1CC[C@H](c2ccc(-c3cnc(-c4ccc(C[C@H](NC(=O)Cc5ccc(C(C)(C)C)s5)C(=O)N5CC(C(=O)O)C5)cc4)nc3)cc2)CC1 [Compound 1279]
800 to 2500	CC[C@H]1CC[C@H](c2ccc(-c3cnc(-c4ccc(C[C@@H](NC(=O)c5ccc(C(C)(C)C)s5)C(=O)N[C@@H](C)C(=O)O)cc4)nc3)cc2)CC1 [Compound 1270]
2500 to 5000	CCCCCCCOc1ccc(-c2cnc(-c3ccc(C[C@H](NC(=O)c4ccc(C(C)(C)C)s4)C(=O)N[C@H]4C[C@H](N)C4)cc3)nc2)cc1 [Compound 1281]
800 to 2500	CC[C@H]1CC[C@H](c2ccc(-c3cnc(-c4ccc(C[C@H](NC(=O)c5ccc(C(C)(C)C)s5)C(=O)N[C@H](C(=O)O)C(C)C)cc4)nc3)cc2)CC1 [Compound 1328]
5000 to 10000	CCCC1CCC(N2CC=C(c3cnc(-c4ccc(C[C@H](NC(=O)c5ccc(C(C)(C)C)s5)C(=O)N5CC(C(=O)O)C5)cc4)nc3)CC2)CC1 (some centres unmarked) [Compound 1434]
< 800	CCC[C@H]1CC[C@H](C2CCN(c3cnc(-c4ccc(C[C@H](NC(=O)c5ccc(C(C)(C)C)s5)C(=O)N5CCC(C(=O)O)CC5)cc4)nc3)CC2)CC1 [Compound 1457]
< 800	CCC[C@H]1CC[C@H](C2CCN(c3cnc(-c4ccc(C[C@H](NC(=O)c5ccc(C(C)(C)C)s5)C(=O)NS(C)(=O)=O)cc4)nc3)CC2)CC1 [Compound 1438, 5-(tert-butyl)-N—((S)-1-(methylsulfonamido)-1-oxo-3-(4-(5-(4-((1s,4r)-4-propylcyclohexyl)piperidin-1-yl)pyrimidin-2-yl)phenyl)propan-2-yl)thiophene-2-carboxamide]
800 to 2500	COCCc1ccc(C2CCN(c3cnc(-c4ccc(C[C@H](NC(=O)c5ccc(C(C)(C)C)s5)C(=O)N5CC(C(=O)O)C5)cc4)nc3)CC2)cc1 [Compound 1495]
< 800	CCC[C@H]1CC[C@H](C2CCN(c3cnc(-c4ccc(C[C@H](NC(=O)c5ccc(C(C)(C)C)s5)C(=O)NC(C)(C)C(=O)O)cc4)nc3)CC2)CC1 [Compound 1466]
< 800	CCC[C@H]1CC[C@H](C2CCN(c3cnc(-c4ccc(C[C@H](NC(=O)c5ccc(C(C)(C)C#N)s5)C(=O)N5CC(C(=O)O)C5)cc4)nc3)CC2)CC1 [Compound 1513]
800 to 2500	CCCc1ccc(C2CCN(c3cnc(-c4ccc(C[C@H](NC(=O)c5ccc(C(C)(C)C)s5)C(=O)N5CC(C(=O)O)C5)cc4)nc3)CC2)cn1 [Compound 1498]
2500 to 5000	CCc1ccc(CCc2cnc(-c3ccc(C[C@H](NC(=O)c4ccc(C(C)(C)C)s4)C(=O)N[C@H](C)C(=O)O)cc3)nc2)cc1 [Compound 1274]

same assay, conditions: dose response of compound in presence of fixed concentration of GLP-1(9-36), GLP-1R CRE-bla CHO-K1 cells, read-out: EC20 GLP-1(9-36) PAM EC50

SMILES	EC50 [nM]
CCCCCCCOc1ccc(-c2cnc(-c3ccc(C[C@H](NC(=O)c4ccc(C(C)(C)C)cc4)C(=O)N[C@@H](CC(=O)OCc4ccccc4)C(=O)O)cc3)nc2)cc1 [Compound 502, (S)-4-(benzyloxy)-2-((S)-2-(4-(tert-butyl)benzamido)-3-(4-(5-(4-(heptyloxy)phenyl)pyrimidin-2-yl)phenyl)propanamido)-4-oxobutanoic acid]	< 800
CCCOc1ccc(-c2cnc(-c3ccc(C[C@H](NC(=O)c4ccc(C(C)(C)C)cc4)C(=O)NCCC(=O)O)cc3)nc2)cc1 [Compound 708]	800 to 2500
CCCCCCCOc1ccc(-c2cnc(-c3ccc(C[C@H](NC(=O)c4cccc(C(C)(C)C)c4)C(=O)N4CC(C(=O)O)C4)cc3)nc2)cc1 [Compound 1122]	5000 to 10000
CCCCCC(=O)c1ccc(-c2cnc(-c3ccc(C[C@H](NC(=O)c4ccc(C(C)(C)C)cc4)C(=O)N[C@H](C)C(=O)O)cc3)nc2)cc1 [Compound 725]	800 to 2500
C/C=C/CCCOc1ccc(-c2cnc(-c3ccc(C[C@H](NC(=O)c4ccc(C(C)C)cc4)C(=O)NCCC(=O)O)cc3)nc2)cc1 [Compound 714]	2500 to 5000
CC(C)(C)c1ccc(C(=O)N[C@@H](Cc2ccc(-c3ncc(-c4nc(-c5ccc(C(C)(C)C)cc5)no4)cn3)cc2)C(=O)NCCC(=O)O)cc1 [Compound 745]	800 to 2500
CCCCCCCOc1ccc(-c2cnc(-c3ccc(C[C@H](NC(=O)c4ccc(C(C)(C)C)s4)C(=O)N[C@H](C(=O)O)C(C)c4ccccc4)cc3)nc2)cc1 (some centres unmarked) [Compound 899]	2500 to 5000
CCCCCCCOc1ccc(-c2cnc(-c3ccc(C[C@H](NC(=O)c4ccc(CCC)cc4)C(=O)N4CCC[C@H]4C(=O)O)cc3)nc2)cc1 [Compound 1073]	800 to 2500
C[C@@H](NC(=O)[C@H](Cc1ccc(-c2ncc(-c3cc(OCc4ccccc4)ncc3F)cn2)cc1)NC(=O)c1ccc(C(C)(C)C)s1)C(=O)O [Compound 1041]	800 to 2500
C[C@@H](NC(=O)[C@H](Cc1ccc(-c2ncc(-c3ccc(-c4cccc(F)c4)cc3)cn2)cc1)NC(=O)c1ccc(C(C)(C)C)s1)C(=O)O [Compound 1134]	800 to 2500
CC(C)(C)c1ccc(C(=O)N[C@@H](Cc2ccc(-c3ncc(-c4ccc(-c5ccccc5)cc4)cn3)cc2)C(=O)N2CC[C@H](C(=O)O)C2)s1 [Compound 769]	5000 to 10000
CCCCCCCOc1ccc(-c2cnc(-c3ccc(C[C@H](NC(=O)c4ccc(C(C)(C)C)s4)C(=O)N4CCC[C@H]4C(=O)NS(=O)(=O)CC(=O)OC)cc3)nc2)cc1 [Compound 496]	< 800
CC(C)(C)c1ccc(C(=O)N[C@@H](Cc2ccc(-c3ncc(-c4nc(-c5cccc(Oc6ccccc6)c5)no4)cn3)cc2)C(=O)NCCC(=O)O)cc1 [Compound 757]	800 to 2500
CCCCCCCOc1ccc(-c2cnc(-c3ccc(C[C@H](NC(=O)c4ccc(CCCC)cc4)C(=O)N4CCC[C@H]4C(=O)O)cc3)nc2)cc1 [Compound 1075]	800 to 2500
CCCCCCCOc1ccc(-c2cnc(-c3ccc(C[C@H](NC(=O)c4ccc(C(C)(C)C)s4)C(=O)N4CCC(F)(C(=O)O)C4)cc3)nc2)cc1 (some centres unmarked) [Compound 652]	< 800
CCCCCCCOc1ccc(-c2cnc(-c3ccc(C[C@H](NC(=O)c4ccc(OCCC)cc4)C(=O)N[C@H](C)C(=O)O)cc3)nc2)cc1 [Compound 982]	5000 to 10000
CCCCCCCOc1ccc(-c2cnc(-c3ccc(C[C@H](NC(=O)c4ccc(C(C)(C)C#N)cc4)C(=O)N[C@H](C)C(=O)O)cc3)nc2)cc1 [Compound 835]	2500 to 5000
CCCCCCCOc1ccc(-c2cnc(-c3ccc(C[C@H](NC(=O)c4ccc(C(C)(C)C)s4)C(=O)N4CC(c5nn[nH]n5)C4)cc3)nc2)cc1 [Compound 978]	800 to 2500
CCCCCCCOc1ccc(-c2cnc(-c3ccc(CC(NC(=O)c4ccc(C(C)(C)C)s4)C(=O)N[C@@H](Cc4ccc(O)cc4)C(=O)O)cc3)nc2)cc1 (some centres unmarked) [Compound 428]	800 to 2500
CC(C)(C)c1ccc(C(=O)N[C@@H](Cc2ccc(-c3ncc(-c4ccc(-c5ccccc5F)cc4F)cn3)cc2)C(=O)N2CC(C(=O)O)C2)s1 [Compound 1194]	< 800
CCCCCCCOc1ccc(-c2cnc(-c3ccc(C[C@H](NC(=O)c4ccc(CC)cn4)C(=O)N4CC(C(=O)O)C4)cc3)nc2)cc1 [Compound 1106]	2500 to 5000
CCCCCCCOc1ccc(-c2cnc(-c3ccc(C[C@H](NC(=O)c4ccc(C(C)(C)C)cc4)C(=O)N4C[C@H](N(C)C)C[C@H]4C(=O)O)cc3)nc2)cc1 [Compound 622]	800 to 2500
CCCCCCCOc1ccc(-c2cnc(-c3ccc(C[C@H](NC(=O)c4ccc(C(C)(C)C)cc4)C(=O)N4C[C@@H](O)C[C@H]4C(=O)O)cc3)nc2)cc1 [Compound 587]	< 800

Second part, the molecule after the results:

EC50 [nM]	SMILES
2500 to 5000	C[C@@H](NC(=O)[C@H](Cc1ccc(-c2ncc(-c3ccc(C(F)(F)F)cc3)cn2)cc1)NC(=O)c1ccc(C(C)(C)C)s1)C(=O)O [Compound 742]
< 800	CCCCCCCOc1ccc(-c2cnc(-c3ccc(C[C@H](NC(=O)c4ccc(C(C)(C)C)s4)C(=O)N[C@@H](C(=O)O)[C@H](C)CC)cc3)nc2)cc1 [Compound 658]
800 to 2500	CC(C)(C)c1ccc(C(=O)N[C@@H](Cc2ccc(-c3ncc(-c4ccc(OCC5CCC(C(C)(C)C)CC5)cc4)cn3)cc2)C(=O)NCCC(=O)O)cc1 (some centres unmarked) [Compound 803]
< 800	CCCCCCCOc1ccc(-c2cnc(-c3ccc(C[C@H](NC(=O)c4ccc(C(C)(C)C)s4)C(=O)N4CCC[C@H]4C(=O)NCC(=O)O)cc3)nc2)cc1 [Compound 493]
2500 to 5000	CCCCCCCOc1ccc(-c2cnc(-c3ccc(C[C@H](NC(=O)c4ccc(C(C)(C)C)s4)C(=O)NC4CCNC4)cc3)nc2)cc1 (some centres unmarked) [Compound 984]
800 to 2500	CCCCOc1ccc(-c2cnc(-c3ccc(C[C@H](NC(=O)c4ccc(C(C)(C)C)s4)C(=O)N[C@H](C)C(=O)O)cc3)nc2)cc1 [Compound 733]
800 to 2500	CC(C)Sc1ccc(-c2cnc(-c3ccc(C[C@H](NC(=O)c4ccc(C(C)(C)C)s4)C(=O)N[C@H](C)C(=O)O)cc3)nc2)cc1 [Compound 1035]
800 to 2500	CCCCCCCOc1ccc(-c2cnc(-c3ccc(C[C@H](NC(=O)c4ccc(C(C)(C)C)s4)C(=O)N4CC(C(=O)O)C4)cc3)nc2)nc1 [Compound 1066]
800 to 2500	CCCCOc1ccc(-c2cnc(-c3ccc(C[C@H](NC(=O)c4ccc(C(C)(C)C)s4)C(=O)N4CC(C(=O)O)C4)cc3)nc2)cc1 [Compound 786]
800 to 2500	C[C@@H](NC(=O)[C@H](Cc1ccc(-c2ncc(/C=C\c3ccccc3)cn2)cc1)NC(=O)c1ccc(C(C)(C)C)s1)C(=O)O [Compound 1050]
